Legend:
[1] = test system: wild-type or ALS/FTD-associated mutant (P362L, A381T, E384K) TIA1-GFP in HEK cells; experiment: TIA1-GFP aggregates in arsenite-treated HEK cells; type: cell-based; conditions: sodium arsenite 0.5 mM 30 minutes, then 10 μM peptide
From the text: The inventors tested whether the G3BP1 190-208 peptide would prevent the aggregation of granules formed by TIA1 and TDP43 mutant proteins associated with ALS and FTD. […] Next, we treated HEK cells expressing wild-type and or ALS/FTD-associated mutants (P362L, A381T, or E384K)TIA1, with arsenite a potent inducer of SG aggregation, in addition to either G3BP1 190-208 peptide or control G3BP1 168-189 peptide.
FIG. 5: Cell permeable G3BP1 190-208 peptide decreases TIA1-GFP puncta formed due to expression of disease causing TIA1 mutants. (A) Representative images of HEK cells transfected with GFP-tagged wild-type or ALS/FTD-associated mutants (P362L, A381T, or E384K) TIA1. Arrows show TIA1-GFP puncta. (B) Quantification of the percentage of cells with TIA1-GFP puncta greater than 2 μm^2 area in transfected cells relative TIA1-WT-GFP expressing cells. Consistent with previous studies, ALS/FTD- associated TIA1 mutants show increased number of TIA1-GFP puncta as compared to WT-TIA1. (C) HEK cells expressing TIA1-GFP or ALS/FTD-associated mutants TIA1-P362L, TIA1-A381T, TIA1-E384K were treated with sodium arsenite (0.5 mM) for 30 minutes followed by treatment with either 10 μM 190-208 G3BP1 or 168-189 control peptide. The number of cells containing TIA1-GFP puncta were measured and results are reported relative to non-treated controls. Number of HEK cells with TIA1-GFP granules both for WT and ALS/FTD mutants decreased after treatment with 10 μM 190-208 G3BP1 as compared to the 168-189 control peptide treated cells. (N≥90 over 3 cultures; by two-way ANOVA with Tukey HSD post-hoc). Scale bar: 20 μm.

C9ORF72 iPS-MN axons = experiment: OPP labeling of local protein synthesis in iPS-MN axons; type: cell-based, human; conditions: axonal-exclusive application of 20 μM peptide
From the text: Formation of G3BP1-positive RNP condensates is strongly associated with repressed RNA translation, see Sahoo, P. K. et al. A Ca^2+ dependent switch activates axonal casein kinase 2α translation and drives G3BP1 granule disassembly for axon regeneration. Curr. Biol. 30, 4882-4895.e6 (2020), and altered mRNA transport, see Liao, Y. C. et al. RNA granules hitchhike on lysosomes for long-distance transport, using Annexin All as a molecular tether. Cell 179, 147-164.e20 (2019), leading to reduced protein synthesis, see Sahoo, P. K. et al. Axonal G3BP1 stress granule protein limits axonal mRNA translation and nerve regeneration. Nat. Commun. 9, 1-14 (2018). […] By quantifying OPP puncta density within in vitro NMJs, we identified robust protein synthesis within control co-cultures, while protein synthesis in TDPΔNLS NMJs was severely impaired (FIG. 19 3k-l). […] Unpaired-t-test, two-sided ****p<0.0001. c Images and d-f quantification of NFH, pTDP-43 and G3BP1 and their colocalization in C9ORF72 iPS-MN axons either treated or not with G3BP1 peptide. Quantifications of G3BP1 particle density (d), G3BP1-pTDP-43 coloc-particle density (e) and G3BP1-pTDP-43 coloc-particle size (f) from C9ORF72 and control iPS-MN axons, either treated or not with G3BP1 peptide. […] One-way-ANOVA with Holm-Sidak correction. […], ****p<0.0001. i Images and j quantification of OPP puncta density in control or ΔNLS MN axons. […]

## YGNKKNNNQNNN-VVEPEPEPEPEPEPEPVSE [G3BP1 190-208 peptide]
[1]; WT and ALS/FTD mutants, relative to non-treated controls
  number of HEK cells with TIA1-GFP granules: decreased
[1]; WT and mutant TIA1
  size of TIA1 aggregates: decrease the size of the TIA1 aggregates
C9ORF72 iPS-MN axons
  OPP puncta density (axonal translation): reversed

From patent US20230190887A1, “TARGETING G3BP AGGREGATION TO PREVENT NEURODEGENERATION” (priority 2019, published 2023)
